The record followed here is the OligoGym collection.

After the bases stand the sugars from the 5' end (letter, count) and the backbone: PS all phosphorothioate, else s phosphorothioate and o phosphodiester by linkage. Methylation of C is not given here. e = 2'-O-(2-methoxyethyl) (MOE); k = constrained ethyl (cEt); d = 2'-deoxy (DNA); m = 2'-O-methyl

This series concerns the target HSD17B13. The conditions noted are these: ASO, HepaRG.

As to “CTTAUGTAATAGCCAG (sugars k3 d1 m1 d8 k3, PS)”, the target mRNA inhibition is, setting by setting: (0.02 µM) 0%; (0.078 µM) 0%; (0.313 µM) 34%; (1 µM) 75%; (1.25 µM) 65%; (5 µM) 91%.

Where the note is “1 µM”, “TATTAGAAGTCAGCCC (sugars kkdddddddddkekek, PS)” displayed a target mRNA inhibition of 36%.

Where the note is “1 µM”, GTGTTAGCTTTAATTT (sugars k3 d10 k3, PS) registered a target mRNA inhibition of 48%.

In the case of “TACTTGAACAGTCTTA (sugars k3 d9 k3 e1, PS)”, the target mRNA inhibition (1 µM) was 65%.

Turning to TAAGTTACCAGAGCAT (sugars k3 d10 k3, PS), the target mRNA inhibition was found to be 0% (0.02 µM); 0% (0.078 µM); 30% (0.313 µM); 77% (1 µM); 71% (1.25 µM); 91% (5 µM).

As to GCATCTTAAGATACCC (sugars k3 d10 k3, PS), the target mRNA inhibition reads like this: (0.02 µM) 16%; (0.078 µM) 45%; (0.313 µM) 82%; (1 µM) 82%; (1.25 µM) 89%; (5 µM) 97%.

As for AGTTGCACCGTTTTGG (sugars k3 d10 k3, PS), the target mRNA inhibition (1 µM) was 55%.

Regarding TTAAGCATTGTTAGCT (sugars k3 d10 k3, PS), the target mRNA inhibition (1 µM) was found to be 16%.

Regarding CTATGTAATAGGCAGT (sugars k3 d10 k3, PS), the target mRNA inhibition came to 18% (0.02 µM); 20% (0.078 µM); 63% (0.313 µM); 73% (1 µM); 75% (1.25 µM); 86% (5 µM).

Take GATAGTCCATGCAAAA (sugars k3 d10 k3, PS): under “1 µM”, the target mRNA inhibition was 64%.

For the setting “1 µM”, GGCTGGATATACTGTC (sugars k3 d10 k3, PS) yielded a target mRNA inhibition of 18%.

As to AAGTTAATAGGACTAA (sugars k3 d10 k3, PS), for the setting “1 µM”, the target mRNA inhibition is 17%.

Consider TTCATAGTGGACTTCA (sugars k3 d10 k3, PS), for which, where the note is “1 µM”, the target mRNA inhibition worked out at 51%.

On to TAATTTTCAGATCCCG (sugars k3 d10 k3, PS), for which the target mRNA inhibition amounted to 0% (0.02 µM); 9% (0.078 µM); 41% (0.313 µM); 75% (1 µM); 62% (1.25 µM); 89% (5 µM).

CTATTATGCACTCTAT (sugars k3 d10 k3, PS) came in with a target mRNA inhibition (1 µM) of 32%.

“TTGAACAGTCTTAAAC (sugars kkdddddddddkekek, PS)” returned a target mRNA inhibition (1 µM) of 37%.

Take “AGAGUTGCACCGTTTT (sugars k3 d1 m1 d8 k3, PS)”: the target mRNA inhibition (1 µM) stood at 68%.

In the case of AATACGCTGAGAGTTA (sugars k3 d10 k3, PS), the target mRNA inhibition (1 µM) is 48%.

Turning to CAATCCCAACCAAACT (sugars k3 d10 k3, PS), the target mRNA inhibition (1 µM) was found to be 49%.

Take “TAAGATACCCAGGTTG (sugars kkdddddddddkekek, PS)”: the target mRNA inhibition (1 µM) came to 30%.

In the case of “ACAGUCTTAAACCTTC (sugars k3 d1 m1 d8 k3, PS)”, the target mRNA inhibition was 19% (0.02 µM); 35% (0.078 µM); 41% (0.313 µM); 81% (1 µM); 67% (1.25 µM); 85% (5 µM).

GTTCAACTGAACCTCT (sugars k3 d10 k3, PS) had a target mRNA inhibition (1 µM) of 55%.

Take “TGTGATTGAGTTCTCC (sugars kkdddddddddkekek, PS)”: where the note is “1 µM”, the target mRNA inhibition is 11%.

As to AACAGTTTAGATTGCA (sugars k3 d10 k3, PS), under “1 µM”, the target mRNA inhibition worked out at 71%.

For the sequence AGGTTTTGATACCAGT (sugars k3 d10 k3, PS), the target mRNA inhibition (1 µM) is 60%.

Take “TTCTGTGGCATGGCTA (sugars k3 d1 m1 d8 k3, PS)”: for the setting “1 µM”, the target mRNA inhibition came to 65%.

Sequence “ATCTUAAGATACCCAG (sugars k3 d1 m1 d8 k3, PS)” showed a target mRNA inhibition (1 µM) of 55%.

Consider “TCATAGTGGACTTCAT (sugars k3 d9 k3 e1, PS)”, for which the target mRNA inhibition (1 µM) worked out at 54%.

For the setting “1 µM”, CTAATAACTACATGAC (sugars k3 d10 k3, PS) came in with a target mRNA inhibition of 18%.

In turn, AGAGTCGGTCACCTTT (sugars k3 d10 k3, PS) returned a target mRNA inhibition (1 µM) of 71%.

The sequence “ATGTUTATGTAAGCAC (sugars k3 d1 m1 d8 k3, PS)” gave a target mRNA inhibition (1 µM) of 45%.

In turn, GATTTAGTTGGTAGCT (sugars k3 d10 k3, PS) showed a target mRNA inhibition (1 µM) of 63%.

Under “1 µM”, “GCTAGTGCCAAACCAA (sugars k3 d1 m1 d8 k3, PS)” had a target mRNA inhibition of 65%.

As to TGATGGTGATCAGAAG (sugars k3 d10 k3, PS), the target mRNA inhibition (1 µM) worked out at 0%.

In the case of TGGAGGAAAGCTTCAA (sugars k3 d10 k3, PS), under “1 µM”, the target mRNA inhibition is 10%.

Consider AATATCAGCCATCTAG (sugars k3 d10 k3, PS), for which the target mRNA inhibition (1 µM) came to 24%.

TAGCAAGCCAACAGAG (sugars k3 d10 k3, PS) registered a target mRNA inhibition (1 µM) of 21%.

Turning to GAAATTTGTGAACCTG (sugars k3 d10 k3, PS), the target mRNA inhibition (1 µM) was found to be 32%.

“AGCTTTTGTCCACCTT (sugars k3 d9 k3 e1, PS)” showed a target mRNA inhibition (1 µM) of 69%.

Sequence AATCCTATGCAAATTC (sugars k3 d10 k3, PS) showed a target mRNA inhibition (1 µM) of 42%.

For GCATTGAAAAGATGTA (sugars k3 d10 k3, PS), under “1 µM”, the target mRNA inhibition turned out to be 0%.

Consider “TAGTCTTCAGCAAAGT (sugars kkdddddddddkekek, PS)”, for which the target mRNA inhibition (1 µM) was found to be 35%.

For the sequence TATAGAGGGTCCACTT (sugars k3 d10 k3, PS), the target mRNA inhibition (1 µM) was 17%.

Regarding TCTATTAGTTGGCCTG (sugars k3 d10 k3, PS), the target mRNA inhibition (1 µM) is 26%.

Regarding AGAACCAATATGCTCT (sugars k3 d10 k3, PS), the target mRNA inhibition (1 µM) was determined as 38%.

Regarding TGCTCCATAATAATAG (sugars k3 d10 k3, PS), the target mRNA inhibition (1 µM) was found to be 35%.

Take AGGTAGCTAATGTATG (sugars k3 d10 k3, PS): the target mRNA inhibition (1 µM) was found to be 53%.

CTTAGGAAAGCTCATG (sugars k3 d10 k3, PS) came in with a target mRNA inhibition (1 µM) of 0%.

For “TATTGGTAAGTATTCC (sugars kkdddddddddkekek, PS)”, where the note is “1 µM”, the target mRNA inhibition was 36%.

In the case of TATCAGAAACTTATAC (sugars k3 d10 k3, PS), under “1 µM”, the target mRNA inhibition came to 0%.

Under “1 µM”, “TAGTATAGTTATCTTC (sugars k3 d1 m1 d8 k3, PS)” returned a target mRNA inhibition of 13%.

Sequence AACCTTCCCTGTGTAA (sugars k3 d10 k3, PS) came in with a target mRNA inhibition (1 µM) of 38%.

In turn, “GTGCCAAACCAATGTT (sugars kkdddddddddkekek, PS)” registered a target mRNA inhibition (1 µM) of 38%.

As for “AGTTGCACCGTTTTGG (sugars kkdddddddddkekek, PS)”, the target mRNA inhibition (1 µM) is 41%.

For TCCATGCAAAAGCATT (sugars k3 d10 k3, PS), the target mRNA inhibition (1 µM) was found to be 62%.

For the sequence GGAATGCTCATATTAA (sugars k3 d10 k3, PS), the target mRNA inhibition (1 µM) stood at 19%.

As for TAAGGCAAAGATCTGG (sugars k3 d10 k3, PS), where the note is “1 µM”, the target mRNA inhibition came to 46%.

TGTGTAGTCCTAGGGA (sugars k3 d10 k3, PS) gave a target mRNA inhibition (1 µM) of 50%.

On to “GCATGGCTACAGATTG (sugars k3 d9 k3 e1, PS)”, for which the target mRNA inhibition (1 µM) was 67%.

As for TTCTGATGTCAGACCT (sugars k3 d10 k3, PS), the target mRNA inhibition (1 µM) was 42%.

Take CATGAAGATTAGTTAA (sugars k3 d10 k3, PS): where the note is “1 µM”, the target mRNA inhibition was determined as 11%.

In turn, ATTAAGCAGAATTGTG (sugars k3 d10 k3, PS) had a target mRNA inhibition (1 µM) of 8%.

Where the note is “1 µM”, TAAAAATTGGCCTCCT (sugars k3 d10 k3, PS) came in with a target mRNA inhibition of 29%.

CTACCACATACGCATG (sugars k3 d10 k3, PS): under “1 µM”, the target mRNA inhibition came out at 25%.

For the sequence TTGGTGGACTTCAGAG (sugars k3 d10 k3, PS), the target mRNA inhibition (1 µM) amounted to 8%.

On to ACCAAACTTGCCCATA (sugars k3 d10 k3, PS), for which the target mRNA inhibition (1 µM) was 46%.

CCTTGTGTAGTCCTAG (sugars k3 d10 k3, PS): the target mRNA inhibition is, setting by setting: (0.02 µM) 4%; (0.078 µM) 28%; (0.313 µM) 44%; (1 µM) 67%; (1.25 µM) 72%; (5 µM) 85%.

In the case of “GGTGGTAACGGTGATC (sugars k3 d1 m1 d8 k3, PS)”, the target mRNA inhibition (1 µM) worked out at 35%.

GAGTATTTCCTCTGGG (sugars k3 d10 k3, PS) came in with a target mRNA inhibition (1 µM) of 23%.

Regarding “GAACAGTCTTAAACCT (sugars kkdddddddddkekek, PS)”, where the note is “1 µM”, the target mRNA inhibition worked out at 63%.

“AATAGAGTCGGTCACC (sugars kkdddddddddkekek, PS)”: the target mRNA inhibition (1 µM) came to 13%.

Turning to ATGTCCTAGGATGTTG (sugars k3 d10 k3, PS), the target mRNA inhibition (1 µM) was determined as 50%.

Turning to GATATACGATGGAACA (sugars k3 d10 k3, PS), the target mRNA inhibition (1 µM) turned out to be 46%.

AGTTATTCTCTTGACA (sugars k3 d10 k3, PS) returned a target mRNA inhibition (1 µM) of 48%.

For the sequence CTGAGTAAACGACTCT (sugars k3 d10 k3, PS), for the setting “1 µM”, the target mRNA inhibition turned out to be 33%.

As to CGATAGATCTCTTCTC (sugars k3 d10 k3, PS), the target mRNA inhibition (1 µM) turned out to be 15%.

For the sequence TCTAAACATCTCTGGG (sugars k3 d10 k3, PS), the target mRNA inhibition (1 µM) came out at 40%.

On to GTTACATTACAGCCTT (sugars k3 d10 k3, PS), for which the target mRNA inhibition is, setting by setting: (0.02 µM) 0%; (0.078 µM) 18%; (0.313 µM) 50%; (1 µM) 71%; (1.25 µM) 73%; (5 µM) 86%.
